From patent US10023592B2, “Bromodomain inhibitors” (Celgene Quanticel Research, Inc., priority 2013, dated 2018)

How the values were obtained:
[1] = target: BRD4(BD1) (Homo sapiens (Human), UniProt O60885); experiment: In vitro enzyme inhibition assay (BRD4 AlphaScreen); assay type: binding
Procedure, shortened: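 His-tagged BRD4 tested by AlphaScreen for binding of biotinylated H4K5/8/12/16-tetraacetyl peptide. After 20 min at room temperature, streptavidin donor and nickel chelate acceptor beads added (5 μg/mL final each). IC50 determined.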

[2] = system: Raji, human Burkitts lymphoma cells; experiment: Cell-MTS proliferation assay, Raji; assay type: cell-based; settings: 168 hr
Experimental: (§1) The Cell-MTS assay is a 7-day plate-based colorimetric assay which quantifies the amount of newly generated NADH in the presence or absence of test compound. The NADH level is used for the quantification of cancer cell proliferation.
(§2) Established cancer cell lines with a variety of driving mutations were obtained from American Type Culture Collection (ATCC) and routinely passaged according to ATCC protocols. For routine assay, these cells were seeded at densities which enabled ˜90% confluence after 7 days of culture. Raji, human Burkitts lymphoma cells, (cMYC) were seeded at 15,000 cells per 96-well. HL-60, human proleukemia cells, (NRAS, p16, p53, c-Myc amplified) were seeded at 5,000 cells per 96-well. NCI-H460, human non-small cell lung cancer cells, (KRAS, PIK3CA, STLK11, p16) were seeded at 3,000 cells per 96-well. 24 hr after plating, cells received an 11-point dilution of test compound with final concentration ranges from 100 μM to 2.0 nM. […] At the end of this incubation period, 80 μL of media is removed and 20 μL of CellTiter 96® AQueous Non-Radioactive Cell Proliferation Assay soln (Promega) was added. The cells were incubated until the OD490 was >0.6. IC50 values were calculated using the IDBS XLfit software package and include background subtracted OD490 values and normalization to DMSO controls. Cellular proliferation IC50 values were uploaded and archived using the Chem Biography Platform.

[3] = system: HL-60, human proleukemia cells; experiment: Cell-MTS proliferation assay, HL-60; assay type: cell-based; settings: 168 hr
Experimental: as §1, §2

[4] = system: NCI-H460, human non-small cell lung cancer cells; experiment: Cell-MTS proliferation assay, NCI-H460; assay type: cell-based; settings: 168 hr
Experimental: as §1, §2

[5] = in vitro enzyme inhibition assay
[6] = Homo sapiens, Raji, Cell-MTS, class symbols A/B/C
[7] = Homo sapiens, HL-60, Cell-MTS, class symbols A/B/C
[8] = Homo sapiens, NCI-H460, Cell-MTS, class symbols A/B/C
[9] = Homo sapiens, Raji, Cell-MTS proliferation
[10] = Homo sapiens, NCI-H460, Cell-MTS proliferation
[11] = Homo sapiens, HL-60, Cell-MTS proliferation
[12] = Homo sapiens, Cell-MTS proliferation, HL-60 cells
[13] = Homo sapiens, Cell-MTS proliferation, NCI-H460 cells

Row | Compound | IC50 ([1]; class symbols A/B/C) | IC50 [2, 6] | IC50 [3, 7] | IC50 [4, 8] | IC50 [2, 9] | IC50 [4, 10] | also measured
1 | 4-[5-(cyclopropylmethoxy)-2-methylsulfonylpyridin-4-yl]-7-fluoro-2-methylisoquinolin-1-one [Example 203] | – | – | – | – | – | – | IC50 [1, 5]: < 500 nM; IC50 ([2]; Cell-MTS proliferation): < 500 nM; IC50 ([3]; Cell-MTS proliferation): < 500 nM; IC50 ([4]; Cell-MTS proliferation): > 5000 nM
2 | Cn1cc(-c2ccc3c(=O)n(C)cc(-c4cc(S(C)(=O)=O)ccc4OCC4CC4)c3c2)cn1 [Example 46, 4-[2-(cyclopropylmethoxy)-5-methylsulfonylphenyl]-2-methyl-6-(1-methylpyrazol-4-yl)isoquinolin-1-one] | < 500 nM | < 500 nM | < 500 nM | > 5000 nM | – | – | –
3 | COc1ccc(-c2cn(C)c(=O)c3cnccc23)cc1S(=O)(=O)NCc1ccccc1 [Example 54, N-benzyl-2-methoxy-5-(2-methyl-1-oxo-2,7-naphthyridin-4-yl) benzenesulfonamide] | > 5000 nM | – | – | – | – | – | IC50 ([2]; Cell-MTS, class symbols A/B/C): > 5000 nM; IC50 ([3]; Cell-MTS, class symbols A/B/C): 500 to 5000 nM; IC50 ([4]; Cell-MTS, class symbols A/B/C): > 5000 nM
4 | COc1cc(-c2nc(NS(C)(=O)=O)ncc2Oc2ccc(F)cc2F)cn(C)c1=O [Example 167, N-[5-(2,4-difluorophenoxy)-4-(5-methoxy-1-methyl-6-oxopyridin-3-yl)pyrimidin-2-yl]methanesulfonamide] | – | – | – | – | 500 to 5000 nM | > 5000 nM | IC50 [1, 5]: < 500 nM
5 | CCS(=O)(=O)Nc1ncc(Oc2ccc(F)cc2F)c(-c2cc(OC)c(=O)n(C)c2)n1 [Example 168, N-[5-(2,4-difluorophenoxy)-4-(5-methoxy-1-methyl-6-oxopyridin-3-yl)pyrimidin-2-yl]ethanesulfonamide] | – | – | – | – | < 500 nM | > 5000 nM | IC50 [3, 11]: < 500 nM
6 | Cn1cc(-c2cc(OS(N)(=O)=O)ccc2OCC2CC2)c2ccccc2c1=O [Example 214, [4-(cyclopropylmethoxy)-3-(2-methyl-1-oxoisoquinolin-4-yl)phenyl]sulfamate] | – | – | – | – | < 500 nM | > 5000 nM | IC50 [3, 11]: < 500 nM
7 | Cc1cc(-c2cc(OS(N)(=O)=O)ccc2OCC2CC2)cn(C)c1=O [Example 215, [4-(cyclopropylmethoxy)-3-(1,5-dimethyl-6-oxopyridin-3-yl)phenyl]sulfamate] | – | – | – | – | < 500 nM | > 5000 nM | IC50 [3, 11]: < 500 nM
8 | CCCOc1ccc(S(C)(=O)=O)cc1-c1cn(C)c(=O)c2cnc(-c3cnn(C)c3)nc12 [Example 228] | – | – | – | – | 500 to 5000 nM | > 5000 nM | IC50 [3, 11]: < 500 nM
9 | Cc1cc(-c2cn(CS(C)(=O)=O)c(=O)cc2Oc2ccc(F)cc2F)cn(CC2CC2)c1=O [Example 250] | – | – | – | – | 500 to 5000 nM | > 5000 nM | IC50 [3, 11]: < 500 nM
10 | CCS(=O)(=O)c1ccc(NCC2CC2)c(-c2cc(Cl)c(=O)n(C)c2)c1 [Example 275] | – | – | – | – | < 500 nM | > 5000 nM | IC50 [3, 11]: < 500 nM
11 | CCS(=O)(=O)c1ccc(OCC2CC2)c(-c2cn(C)c(=O)c3c2OCC(=O)N3)c1 [Example 365, 8-[2-(cyclopropylmethoxy)-5-ethylsulfonylphenyl]-6-methyl-4H-pyrido[4,3-b][1,4]oxazine-3,5-dione] | – | – | – | – | < 500 nM | > 5000 nM | IC50 [3, 11]: < 500 nM
12 | CCS(=O)(=O)Nc1ccc(Oc2ccc(F)cc2F)c(-c2cc(O)c(=O)n(C)c2)c1 [Example 451, N-[4-(2,4-difluorophenoxy)-3-(5-hydroxy-1-methyl-6-oxopyridin-3-yl)phenyl]ethanesulfonamide] | – | – | – | – | – | – | IC50 [1, 5]: < 500 nM; IC50 [3, 12]: < 500 nM; IC50 [4, 13]: > 5000 nM
13 | Cc1cc(-c2cc(S(N)(=O)=O)ccc2NCC2CC2)cn(C)c1=O [Example 452, 4-(cyclopropylmethylamino)-3-(1,5-dimethyl-6-oxopyridin-3-yl) benzenesulfonamide] | – | – | – | – | – | – | IC50 [1, 5]: 500 to 5000 nM; IC50 [3, 12]: 500 to 5000 nM; IC50 [4, 13]: > 5000 nM

Now from value to compound, other results behind:

Row | IC50 ([1]; class symbols A/B/C) | IC50 [2, 6] | IC50 [3, 7] | IC50 [4, 8] | IC50 [2, 9] | IC50 [4, 10] | Compound | also measured
14 | < 500 nM | < 500 nM | < 500 nM | 500 to 5000 nM | – | – | CCS(=O)(=O)Nc1ccc(Cl)c(-c2cn(C)c(=O)c3ccc(-c4cnn(C)c4)cc23)c1 [Example 45, N-[4-chloro-3-[2-methyl-6-(1-methylpyrazol-4-yl)-1-oxoisoquinolin-4-yl]phenyl]ethanesulfonamide] | –
15 | < 500 nM | 500 to 5000 nM | < 500 nM | 500 to 5000 nM | – | – | CCS(=O)(=O)Nc1ccc(Cl)c(-c2cn(C)c(=O)c3ccc(F)cc23)c1 [Example 50, N-[4-chloro-3-(6-fluoro-2-methyl-1-oxoisoquinolin-4-yl)phenyl] ethanesulfonamide] | –
16 | < 500 nM | < 500 nM | < 500 nM | > 5000 nM | – | – | CCS(=O)(=O)Nc1ccc(Oc2ccc(F)cc2F)c(-c2cn(C)c(=O)c3cnccc23)c1 [Example 57, N-[4-(2,4-difluorophenoxy)-3-(2-methyl-1-oxo-2,7-naphthyridin-4-yl)phenyl]ethanesulfonamide] | –
17 | 500 to 5000 nM | < 500 nM | 500 to 5000 nM | > 5000 nM | – | – | COc1ccc(-c2cn(C)c(=O)c3cc(F)ccc23)cc1S(=O)(=O)NCc1ccccc1 [Example 60, N-benzyl-5-(7-fluoro-2-methyl-1-oxoisoquinolin-4-yl)-2-methoxybenzenesulfonamide] | –
18 | 500 to 5000 nM | 500 to 5000 nM | 500 to 5000 nM | > 5000 nM | – | – | CCS(=O)(=O)c1cccc(-c2cn(C)c(=O)c3cc(F)ccc23)c1 [Example 63, 4-(3-ethylsulfonylphenyl)-7-fluoro-2-methylisoquinolin-1-one] | –
19 | < 500 nM | < 500 nM | < 500 nM | 500 to 5000 nM | – | – | CCS(=O)(=O)Nc1cccc(-c2cn(C)c(=O)c3ccc(-c4ccc(C)nc4)cc23)c1 [Example 72, N-[3-[2-methyl-6-(6-methylpyridin-3-yl)-1-oxoisoquinolin-4-yl]phenyl]ethanesulfonamide] | –
20 | < 500 nM | < 500 nM | < 500 nM | 500 to 5000 nM | – | – | CCS(=O)(=O)c1ccc(OCC2CC2)c(-c2cn(C)c(=O)c3ccc(-c4cnn(C)c4)cc23)c1 [Example 82, 4-[2-(cyclopropylmethoxy)-5-ethylsulfonylphenyl]-2-methyl-6-(1-methylpyrazol-4-yl)isoquinolin-1-one] | –
21 | < 500 nM | < 500 nM | < 500 nM | 500 to 5000 nM | – | – | CCS(=O)(=O)Nc1cc(-c2cn(C)c(=O)c3ccc(-c4cnn(C)c4)cc23)c(OC)cc1F [Example 86, N-[2-fluoro-4-methoxy-5-[2-methyl-6-(1-methylpyrazol-4-yl)-1-oxoisoquinolin-4-yl]phenyl]ethanesulfonamide] | –
22 | 500 to 5000 nM | 500 to 5000 nM | < 500 nM | > 5000 nM | – | – | CCS(=O)(=O)Nc1cccc(-c2cn(C)c(=O)c3ccc(-c4ccccn4)cc23)c1 [Example 87, N-[3-(2-methyl-1-oxo-6-pyridin-2-ylisoquinolin-4-yl)phenyl]ethanesulfonamide] | –
23 | < 500 nM | < 500 nM | < 500 nM | > 5000 nM | – | – | COc1cc(F)c(CS(C)(=O)=O)cc1-c1cn(C)c(=O)c2ccc(-c3cnn(C)c3)cc12 [Example 88, 4-[4-fluoro-2-methoxy-5-(methylsulfonylmethyl)phenyl]-2-methyl-6-(1-methylpyrazol-4-yl)isoquinolin-1-one] | –
24 | – | 500 to 5000 nM | < 500 nM | > 5000 nM | – | – | Cc1c(-c2cc(NS(C)(=O)=O)ccc2Oc2ccc(F)cc2F)cn(C)c(=O)c1C [Example 103, N-[4-(2,4-difluorophenoxy)-3-(1,4,5-trimethyl-6-oxopyridin-3-yl)phenyl]methanesulfonamide] | –
25 | – | – | – | – | 500 to 5000 nM | > 5000 nM | Cn1cc(-c2nc(NS(C)(=O)=O)ncc2Oc2ccc(F)cc2F)c2ccccc2c1=O [Example 165, N-[5-(2,4-difluorophenoxy)-4-(2-methyl-1-oxoisoquinolin-4-yl)pyrimidin-2-yl]methanesulfonamide] | IC50 [1, 5]: < 500 nM
26 | – | – | – | – | < 500 nM | > 5000 nM | Cn1cc(-c2nc(S(C)(=O)=O)ccc2OCC2CC2)c2cc(F)ccc2c1=O [Example 202, 4-[3-(cyclopropylmethoxy)-6-methylsulfonylpyridin-2-yl]-6-fluoro-2-methylisoquinolin-1-one] | IC50 [1, 5]: < 500 nM
27 | – | – | – | – | 500 to 5000 nM | > 5000 nM | C#Cc1cc(-c2cc(NS(C)(=O)=O)ccc2Oc2ccc(F)cc2F)cn(C)c1=O [Example 286, N-[4-(2,4-difluorophenoxy)-3-(5-ethynyl-1-methyl-6-oxopyridin-3-yl)phenyl]methanesulfonamide] | IC50 [1, 5]: < 500 nM
